Measured values as given in US9187455B2, “Substituted pyridazines as PDE10A inhibitors” (Hoffmann-La Roche Inc., priority 2009, dated 2015).

What was measured:
[1] = test system: rats; details: sub-chronic treatment with PCP, Rodefer et al. 2005; cited from earlier work
[2] = molecular target: T1, PDE10A2 (Homo sapiens, UniProt Q9Y233); test: PDE10A2 Scintillation Proximity Assay (SPA), [3H]-cGMP hydrolysis; type: biochemical; details: catalytic domain of human PDE10A2 (S449-D789), 0.25 nM enzyme, 50 nM cGMP + 50 nM [3H]-cGMP, 30 minutes at room temperature; read-out: PDE10A2 inhibition IC50
T1 construct: residues serine 449 to aspartate 789; His6 (H6) with Gateway linker and thrombin cleavage site (N, cleaved yes); made in house; host or cells: E. coli BL21(DE3) pLysS
Procedure, shortened: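 Recombinant human PDE10A2 catalytic domain (S449–D789, E. coli-expressed), 0.25 nM, with 50 nM cGMP plus 50 nM [3H]-cGMP in 20 mM HEPES/10 mM MgCl2, pH 7.5, 30 min at room temperature. Stopped with YSi-SPA beads in zinc sulphate; counts over a compound concentration range gave IC50.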

T1 sequence (Q9Y233 715-1055): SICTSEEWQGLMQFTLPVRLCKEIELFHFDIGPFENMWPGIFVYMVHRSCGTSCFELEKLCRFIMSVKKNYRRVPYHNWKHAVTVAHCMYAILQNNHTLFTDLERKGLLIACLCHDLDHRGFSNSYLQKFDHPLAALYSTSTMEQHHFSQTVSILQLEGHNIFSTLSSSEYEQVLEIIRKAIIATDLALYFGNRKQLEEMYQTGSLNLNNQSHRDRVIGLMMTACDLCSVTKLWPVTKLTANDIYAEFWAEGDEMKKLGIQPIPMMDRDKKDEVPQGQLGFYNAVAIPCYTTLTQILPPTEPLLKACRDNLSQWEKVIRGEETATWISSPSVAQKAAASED

| Compound | effect on deficits in extra-dimensional shift learning [1] | IC50 [2] [nM] |
| --- | --- | --- |
| COc1ccc(Cc2nccc3cc(OC)c(OC)cc23)cc1OC [papaverine, Papaverine] | attenuate the deficits in the extra-dimensional shift learning |  |
| O=c1ccn(-c2cncc(Cl)c2)nc1-c1ccnn1-c1cccc2ncccc12 [Example 60, 1-(5-Chloro-pyridin-3-yl)-3-(2-quinolin-5-yl-2H-pyrazol-3-yl)-1H-pyridazin-4-one] |  | 78 |
| O=c1ccn(-c2cccnc2)nc1-c1ccnn1-c1cccc2ncccc12 [Example 84, 1-Pyridin-3-yl-3-(2-quinolin-5-yl-2H-pyrazol-3-yl)-1H-pyridazin-4-one] |  | 169 |
| O=c1ccn(-c2ccnc(N3CCOCC3)c2)nc1-c1ccnn1-c1ccc2c(c1)OCCO2 [Example 41, 3-[2-(2,3-Dihydro-benzo[1,4]dioxin-6-yl)-2H-pyrazol-3-yl]-1-(2-morpholin-4-yl-pyridin-4-yl)-1H-pyridazin-4-one] |  | 82 |
| O=c1ccn(-c2cncc3ccccc23)nc1-c1ccnn1-c1ccccc1F [Example 65, 3-[2-(2-Fluoro-phenyl)-2H-pyrazol-3-yl]-1-isoquinolin-4-yl-1H-pyridazin-4-one] |  | 144 |
